# US5349127A, “Expression of herbicide metabolizing cytochromes P450” (priority 1992, dated 1994)
# How the values were obtained:
# [1] = test system: Arabidopsis thaliana seedlings; assay: Seed germination assay of transgenic Arabidopsis (Example 26); type: in vivo; set-up: Visual Inhibition Ratings of Seedlings: key: 4: complete inhibition; 1: no inhibition; conditions: for #R number of resistant seedlings / #S number of sensitive seedlings / % R percent of seedlings which are resistant: 10015 5 ppb
# Experimental: T2 seed was harvested from selected putative transformants and sown on GM medium containing 50 mg/l kanamycin and that containing 5 ppb 10015. Plates were sealed with filter tape, cold treated for 2 or more days at 4° C., and then incubated for 10 to 20 days at 23° C. under constant illumination as described above. Seedlings were scored as resistant (green, true leaves develop) and sensitive (no true leaves develop). […] The percent of resistant seedlings is inversely proportional with the two selections. Kanamycin is a positive selection for those seedlings that carry the foreign DNA.
# Selected T2 seedlings that were kanamycin resistant were transplanted to soil and were grown to maturity at 21° C. daytime (14 hours) 18° C. nighttime (10 hours) at 65-80% relative humidity. T3 seed was collected, sterilized, and germinated on GM medium containing 50 mg/l kanamycin and that containing 5 ppb 10015. Plates were sealed with filter tape, cold treated for 2 or more days at 4° C., and then incubated for 10 to 20 days at 23° C. under constant illumination as described above. Two of the six plants produced seed that was 100% resistant to kanamycin and 100% sensitive to 10015; they are homozygous for the inserted DNA. The other four parents are heterozygous and show an inverse proportion of kanamycin and 10015 resistant seedlings. […] Therefore, seedlings expressing the P450SU1 gene can be negatively selected.
# Germination assays of homozygous seed on various concentrations of 10015 were performed to assay the relative sensitivity to 10015 produced by the three different promoters and between independent transformants. Seed was sterilized, sown on GM medium with 0, 0.5, 1, 2, 5, 10 and 20 ppb 10015, incubated, and scored as described above. In addition, seedlings are rated on a scale of one to three for the amount of growth.
# Over 500 seed that are homozygous for the P450SU1 coding region were sown on the same plates. The plates were sealed, cold-treated, and incubated as previously described. […] Wild type seedlings were unaffected by the dying transformed seedlings. In addition, when greater than 10,000 seed of a homozygous Cab-SU111 plant was sown on GM medium with 10 ppb 10015, then cold-treated and incubated as described above, eighteen seedlings were resistant to 10015 and were unaffected by neighboring seedlings.
# [2] = test system: transformed tobacco seedlings; assay: Growth of transformed tobacco seed on medium with 10001 (Example 24); type: in vivo, Nicotiana tabacum; conditions: AGS502 (no P450 gene), 100 days
# Experimental: Tobacco seed from plants transformed with several P450SU1 and P450SU1+FeS-Bconstructions were tested for their ability to grow on tissue culture medium supplemented with compound 10001. Seed was placed on medium containing: 0, 5, 10, 20, and 40 nM of compound 10001. After 100 days, the plants were visually rated for their resistance (due to herbicide detoxification) to the herbicide treatment. All plants grown in the absence of herbicide and those treated with the lowest levels (5 nM and 10 nM) of 10001 had grown so large that no comparative rating was possible. The severely growth inhibited plants (those grown in the presence of 20 nM and 40 nM of compound 10001) were scored by comparing them to AGS502 plants (transformed without P450 gene) in Table 23.
# SCORING SYSTEM: Visual comparison to AGS502 plants which uniformly appeared:
# Ratings: 0=essentially identical to AGS 502 controls; 1=marginally larger ([…]1.2×) than AGS502; 2=clearly larger (1.2 to 2×) than AGS502; 3=substantially larger (>2×) than AGS502.
compound,measurement,setting,value
COc1cc(OC)nc(NC(=O)NS(=O)(=O)c2cccc3c2S(=O)(=O)N(C(C)C)C3)n1 [compound 10015],Visual Inhibition Ratings of Seedlings,"[1]; 12.1.1 Cab-SU111, 1 ppb 10015",1
same,Visual Inhibition Ratings of Seedlings,"[1]; 12.1.1 Cab-SU111, 2 ppb 10015",1
same,Visual Inhibition Ratings of Seedlings,"[1]; 12.1.1 Cab-SU111, 5 ppb 10015",2
same,Visual Inhibition Ratings of Seedlings,"[1]; 12.1.1 Cab-SU111, 10 ppb 10015",4
same,Visual Inhibition Ratings of Seedlings,"[1]; 12.1.1 Cab-SU111, 20 ppb 10015",4
same,Visual Inhibition Ratings of Seedlings,"[1]; 12.16.2 Cab-SU111, 1 ppb 10015",1
same,Visual Inhibition Ratings of Seedlings,"[1]; 12.16.2 Cab-SU111, 2 ppb 10015",1
same,Visual Inhibition Ratings of Seedlings,"[1]; 12.16.2 Cab-SU111, 5 ppb 10015",1
same,Visual Inhibition Ratings of Seedlings,"[1]; 12.16.2 Cab-SU111, 10 ppb 10015",1
same,Visual Inhibition Ratings of Seedlings,"[1]; 12.16.2 Cab-SU111, 20 ppb 10015",1
same,Visual Inhibition Ratings of Seedlings,"[1]; 12.20.5 Cab-SU111, 1 ppb 10015",1
same,Visual Inhibition Ratings of Seedlings,"[1]; 12.20.5 Cab-SU111, 2 ppb 10015",2
same,Visual Inhibition Ratings of Seedlings,"[1]; 12.20.5 Cab-SU111, 5 ppb 10015",3
same,Visual Inhibition Ratings of Seedlings,"[1]; 12.20.5 Cab-SU111, 10 ppb 10015",4
same,Visual Inhibition Ratings of Seedlings,"[1]; 12.20.5 Cab-SU111, 20 ppb 10015",4
same,Visual Inhibition Ratings of Seedlings,"[1]; 13.3.1 SU18, 1 ppb 10015",1
same,Visual Inhibition Ratings of Seedlings,"[1]; 13.3.1 SU18, 2 ppb 10015",1
same,Visual Inhibition Ratings of Seedlings,"[1]; 13.3.1 SU18, 5 ppb 10015",2
same,Visual Inhibition Ratings of Seedlings,"[1]; 13.3.1 SU18, 10 ppb 10015",4
same,Visual Inhibition Ratings of Seedlings,"[1]; 13.3.1 SU18, 20 ppb 10015",4
same,Visual Inhibition Ratings of Seedlings,"[1]; 13.4.6 SSU-SU111, 1 ppb 10015",1
same,Visual Inhibition Ratings of Seedlings,"[1]; 13.4.6 SSU-SU111, 2 ppb 10015",1
same,Visual Inhibition Ratings of Seedlings,"[1]; 13.4.6 SSU-SU111, 5 ppb 10015",3
same,Visual Inhibition Ratings of Seedlings,"[1]; 13.4.6 SSU-SU111, 10 ppb 10015",4
same,Visual Inhibition Ratings of Seedlings,"[1]; 13.4.6 SSU-SU111, 20 ppb 10015",4
same,Visual Inhibition Ratings of Seedlings,"[1]; 17.1.10 SU18, 1 ppb 10015",1
same,Visual Inhibition Ratings of Seedlings,"[1]; 17.1.10 SU18, 2 ppb 10015",1
same,Visual Inhibition Ratings of Seedlings,"[1]; 17.1.10 SU18, 5 ppb 10015",3
same,Visual Inhibition Ratings of Seedlings,"[1]; 17.1.10 SU18, 10 ppb 10015",4
same,Visual Inhibition Ratings of Seedlings,"[1]; 17.1.10 SU18, 20 ppb 10015",4
same,Visual Inhibition Ratings of Seedlings,"[1]; 17.17.3 SU18, 1 ppb 10015",1
same,Visual Inhibition Ratings of Seedlings,"[1]; 17.17.3 SU18, 5 ppb 10015",1
same,Visual Inhibition Ratings of Seedlings,"[1]; 17.17.3 SU18, 10 ppb 10015",2
same,Visual Inhibition Ratings of Seedlings,"[1]; 17.17.3 SU18, 20 ppb 10015",4
same,Visual Inhibition Ratings of Seedlings,"[1]; 17.74.4 SSU-SU111, 1 ppb 10015",1
same,Visual Inhibition Ratings of Seedlings,"[1]; 17.74.4 SSU-SU111, 2 ppb 10015",1
same,Visual Inhibition Ratings of Seedlings,"[1]; 17.74.4 SSU-SU111, 5 ppb 10015",2
same,Visual Inhibition Ratings of Seedlings,"[1]; 17.74.4 SSU-SU111, 10 ppb 10015",3
same,Visual Inhibition Ratings of Seedlings,"[1]; 17.74.4 SSU-SU111, 20 ppb 10015",3
same,Visual Inhibition Ratings of Seedlings,"[1]; 17.92.3 SSU-SU111, 1 ppb 10015",1
same,Visual Inhibition Ratings of Seedlings,"[1]; 17.92.3 SSU-SU111, 2 ppb 10015",1
same,Visual Inhibition Ratings of Seedlings,"[1]; 17.92.3 SSU-SU111, 5 ppb 10015",1
same,Visual Inhibition Ratings of Seedlings,"[1]; 17.92.3 SSU-SU111, 10 ppb 10015",1
same,Visual Inhibition Ratings of Seedlings,"[1]; 17.92.3 SSU-SU111, 20 ppb 10015",1
same,#R number of resistant seedlings,"[1]; T2 seed ID 12-1, pCab-SU111",3
same,#S number of sensitive seedlings,"[1]; T2 seed ID 12-1, pCab-SU111",10
same,% R percent of seedlings which are resistant,"[1]; T2 seed ID 12-1, pCab-SU111",23%
same,#R number of resistant seedlings,"[1]; T2 seed ID 12-2, pCab-SU111",13
same,#S number of sensitive seedlings,"[1]; T2 seed ID 12-2, pCab-SU111",0
same,% R percent of seedlings which are resistant,"[1]; T2 seed ID 12-2, pCab-SU111",100%
same,#R number of resistant seedlings,"[1]; T2 seed ID 12-4, pCab-SU111",12
same,#S number of sensitive seedlings,"[1]; T2 seed ID 12-4, pCab-SU111",8
same,% R percent of seedlings which are resistant,"[1]; T2 seed ID 12-4, pCab-SU111",60%
same,#R number of resistant seedlings,"[1]; T2 seed ID 12-5, pCab-SU111",15
same,#S number of sensitive seedlings,"[1]; T2 seed ID 12-5, pCab-SU111",0
same,% R percent of seedlings which are resistant,"[1]; T2 seed ID 12-5, pCab-SU111",100%
same,#R number of resistant seedlings,"[1]; T2 seed ID 12-6, pCab-SU111",5
same,#S number of sensitive seedlings,"[1]; T2 seed ID 12-6, pCab-SU111",9
same,% R percent of seedlings which are resistant,"[1]; T2 seed ID 12-6, pCab-SU111",36%
same,#R number of resistant seedlings,"[1]; T2 seed ID 12-7, pCab-SU111",9
same,#S number of sensitive seedlings,"[1]; T2 seed ID 12-7, pCab-SU111",13
same,% R percent of seedlings which are resistant,"[1]; T2 seed ID 12-7, pCab-SU111",40%
same,#R number of resistant seedlings,"[1]; T2 seed ID 12-8, pCab-SU111",1
same,#S number of sensitive seedlings,"[1]; T2 seed ID 12-8, pCab-SU111",7
same,% R percent of seedlings which are resistant,"[1]; T2 seed ID 12-8, pCab-SU111",13%
same,#R number of resistant seedlings,"[1]; T2 seed ID 12-9, pCab-SU111",3
same,#S number of sensitive seedlings,"[1]; T2 seed ID 12-9, pCab-SU111",9
same,% R percent of seedlings which are resistant,"[1]; T2 seed ID 12-9, pCab-SU111",25%
same,#R number of resistant seedlings,"[1]; T2 seed ID 12-10, pCab-SU111",9
same,#S number of sensitive seedlings,"[1]; T2 seed ID 12-10, pCab-SU111",0
same,% R percent of seedlings which are resistant,"[1]; T2 seed ID 12-10, pCab-SU111",100%
same,#R number of resistant seedlings,"[1]; T2 seed ID 12-11, pCab-SU111",4
same,#S number of sensitive seedlings,"[1]; T2 seed ID 12-11, pCab-SU111",0
same,% R percent of seedlings which are resistant,"[1]; T2 seed ID 12-11, pCab-SU111",100%
same,#R number of resistant seedlings,"[1]; T3 seed ID 12-1-1, pCab-SU111",0
same,#S number of sensitive seedlings,"[1]; T3 seed ID 12-1-1, pCab-SU111",196
same,% R percent of seedlings which are resistant,"[1]; T3 seed ID 12-1-1, pCab-SU111",0%
same,#R number of resistant seedlings,"[1]; T3 seed ID 12-1-2, pCab-SU111",0
same,#S number of sensitive seedlings,"[1]; T3 seed ID 12-1-2, pCab-SU111",191
same,% R percent of seedlings which are resistant,"[1]; T3 seed ID 12-1-2, pCab-SU111",0%
same,#R number of resistant seedlings,"[1]; T3 seed ID 12-1-3, pCab-SU111",42
same,#S number of sensitive seedlings,"[1]; T3 seed ID 12-1-3, pCab-SU111",90
same,% R percent of seedlings which are resistant,"[1]; T3 seed ID 12-1-3, pCab-SU111",32%
same,#R number of resistant seedlings,"[1]; T3 seed ID 12-1-4, pCab-SU111",80
same,#S number of sensitive seedlings,"[1]; T3 seed ID 12-1-4, pCab-SU111",129
same,% R percent of seedlings which are resistant,"[1]; T3 seed ID 12-1-4, pCab-SU111",37%
same,#R number of resistant seedlings,"[1]; T3 seed ID 12-1-5, pCab-SU111",99
same,#S number of sensitive seedlings,"[1]; T3 seed ID 12-1-5, pCab-SU111",177
same,% R percent of seedlings which are resistant,"[1]; T3 seed ID 12-1-5, pCab-SU111",36%
same,#R number of resistant seedlings,"[1]; T3 seed ID 12-1-6, pCab-SU111",83
same,#S number of sensitive seedlings,"[1]; T3 seed ID 12-1-6, pCab-SU111",152
same,% R percent of seedlings which are resistant,"[1]; T3 seed ID 12-1-6, pCab-SU111",35%
same,#R number of resistant seedlings,[1]; WT,58
same,#S number of sensitive seedlings,[1]; WT,5
same,% R percent of seedlings which are resistant,[1]; WT,92%
same,Visual Inhibition Ratings of Seedlings,"[1]; Wild type, 1 ppb 10015",1
same,Visual Inhibition Ratings of Seedlings,"[1]; Wild type, 2 ppb 10015",1
same,Visual Inhibition Ratings of Seedlings,"[1]; Wild type, 5 ppb 10015",1
same,Visual Inhibition Ratings of Seedlings,"[1]; Wild type, 10 ppb 10015",1
same,Visual Inhibition Ratings of Seedlings,"[1]; Wild type, 20 ppb 10015",1
"CCOC(=O)c1ccccc1S(=O)(=O)NC(=O)Nc1nc(Cl)cc(OC)n1 [compound 10001, N-[(4-chloro-6-methoxy-pyrimidin-2-yl)aminocarbonyl]-2-ethoxycarbonylbenzenesulfonamide]",appearance of AGS502 plants,[2]; 10001 20 nM,"~1 cm tall, 6 leaves ~1 cm diameter"
same,appearance of AGS502 plants,[2]; 10001 40 nM,"~0.5 cm tall, 6 leaves ~0.3 cm diameter, chlorotic"
